Test results taken from ChEMBL document CHEMBL1201862, “PubChem BioAssay data set” (2004).
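In this assay, cells in 96-well plates receive the compound at five concentrations for 48 hours. Endpoints are linearly interpolated between the surrounding concentrations. GI50 is the concentration that inhibits growth by half.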 Activity calls are given as the source filed them. Cut-off read from the data, not from the text of the source: active = GI50 up to about 1.1 µM and inactive = higher.

Experiments:
Test in all cases: NCI anticancer screen, dose series, 48 h
HOP-62 = test system: HOP-62
T47D = test system: T47D
A498 = test system: A498
ACHN = test system: ACHN
CCRF-CEM = test system: CCRF-CEM
KM-20L2 = test system: KM-20L2
UACC-257 = test system: UACC-257
SK-OV-3 = test system: SK-OV-3
NCI-H522 = test system: NCI-H522
MDA-MB-435 = test system: MDA-MB-435
SW-620 = test system: SW-620
NCI-H226 = test system: NCI-H226
OVCAR-4 = test system: OVCAR-4
K562 = test system: K562
KM12 = test system: KM12
Hs-578T = test system: Hs-578T
HL-60 = test system: HL-60
SNB-19 = test system: SNB-19
M14 = test system: M14
HCC 2998 = test system: HCC 2998

Measured: GI50

O=C(CSc1ncnc2[nH]cnc12)c1ccccc1
inactive: HOP-62 > 100 µM | T47D > 100 µM | A498 > 100 µM | ACHN > 100 µM | CCRF-CEM > 65.8 µM | KM-20L2 > 100 µM | UACC-257 > 100 µM | SK-OV-3 > 100 µM | NCI-H522 47.4 µM | MDA-MB-435 > 100 µM | SW-620 > 100 µM | NCI-H226 > 100 µM | OVCAR-4 > 48 µM | K562 41.3 µM | KM12 > 41.1 µM | Hs-578T > 100 µM | HL-60 > 100 µM | SNB-19 > 100 µM | M14 > 88.3 µM

CCCCOCc1cc(CN2CCN(C)CC2)c(O)c2ncccc12
inactive: HOP-62 14.4 µM | A498 24.8 µM | ACHN 6.24 µM | CCRF-CEM 3.07 µM | KM-20L2 26.4 µM | UACC-257 21.1 µM | HCC 2998 24.3 µM | SK-OV-3 67.6 µM | NCI-H522 26.4 µM | SW-620 9.89 µM | NCI-H226 20.8 µM | OVCAR-4 21.5 µM | K562 3.26 µM | KM12 21.1 µM | HL-60 2.13 µM | SNB-19 30.8 µM | M14 12.5 µM

O=C(O)CNc1c2ccccc2[n+]([O-])c2ccccc12
inactive: HOP-62 > 100 µM | A498 > 100 µM | ACHN 65.5 µM | CCRF-CEM 21.2 µM | KM-20L2 > 100 µM | UACC-257 > 100 µM | HCC 2998 > 100 µM | SK-OV-3 > 100 µM | NCI-H522 50.1 µM | SW-620 > 100 µM | NCI-H226 > 100 µM | OVCAR-4 94.2 µM | K562 13.9 µM | KM12 > 100 µM | HL-60 18.7 µM | SNB-19 > 100 µM | M14 > 100 µM

N#C/C(=C\c1ccccc1O)C(N)=O
inactive: HOP-62 > 100 µM | A498 > 100 µM | ACHN 48.9 µM | CCRF-CEM 23.6 µM | KM-20L2 > 100 µM | UACC-257 50.7 µM | HCC 2998 > 100 µM | SK-OV-3 53.1 µM | NCI-H522 21.9 µM | SW-620 76.2 µM | NCI-H226 46.8 µM | OVCAR-4 > 100 µM | K562 51.2 µM | KM12 56.5 µM | HL-60 20.1 µM | SNB-19 71.8 µM | M14 > 100 µM
